Reference: the kinase profiling compilation of Christmann-Franck et al. (2016)
Where “and” joins values, the source holds several entries; their conditions need not be identical. Equal entries are not always repeated.

What was measured:
Experiment in all cases: radiometric filter-binding kinase assay
ABL1 (human) = ABL1 (human) (UniProt P00519); conditions: compound 100.0 µM; ATP 5 µM
AURKA (human) = AURKA (human) (UniProt O14965); conditions: compound 100.0 µM; ATP 5 µM
CaMK1 (human) = CaMK1 (human) (UniProt Q14012); conditions: compound 100.0 µM; ATP 50 µM
EEF2K (human) = EEF2K (human) (UniProt O00418); conditions: compound 100.0 µM; ATP 5 µM
ERBB4 (human) = ERBB4 (human) (UniProt Q15303); conditions: compound 100.0 µM; ATP 5 µM
GCK (human) = GCK (human) (UniProt Q12851); conditions: compound 100.0 µM; ATP 20 µM
GSK3B (human) = GSK3B (human) (UniProt P49841); conditions: compound 100.0 µM; ATP 5 µM
IKBKB (human) = IKBKB (human) (UniProt O14920); conditions: compound 100.0 µM; ATP 5 µM
IKBKE (human) = IKBKE (human) (UniProt Q14164); conditions: compound 100.0 µM; ATP 50 µM
LCK (mouse) = conditions: compound 100.0 µM; ATP 50 µM; accession and sequence are those of the human protein
MAP3K11 (human) = MAP3K11 (human) (UniProt Q16584); conditions: compound 100.0 µM; ATP 20 µM
MAP3K5 (human) = MAP3K5 (human) (UniProt Q99683); conditions: compound 100.0 µM; ATP 50 µM
MAP3K9 (human) = MAP3K9 (human) (UniProt P80192); conditions: compound 100.0 µM; ATP 20 µM
MAPK12 (human) = MAPK12 (human) (UniProt P53778); conditions: compound 100.0 µM; ATP 5 µM
MAPK3 (human) = MAPK3 (human) (UniProt P27361); conditions: compound 100.0 µM; ATP 5 µM
MAPK8 (human) = MAPK8 (human) (UniProt P45983); conditions: compound 100.0 µM; ATP 20 µM
MAPKAPK2 (human) = MAPKAPK2 (human) (UniProt P49137); conditions: compound 100.0 µM; ATP 20 µM
MAPKAPK5 (human) = MAPKAPK5 (human) (UniProt Q8IW41); conditions: compound 100.0 µM; ATP 20 µM
MARK1 (human) = MARK1 (human) (UniProt Q9P0L2); conditions: compound 100.0 µM; ATP 20 µM
MARK2 (human) = MARK2 (human) (UniProt Q7KZI7); conditions: compound 100.0 µM; ATP 20 µM
MELK (human) = MELK (human) (UniProt Q14680); conditions: compound 100.0 µM; ATP 50 µM
MKNK2 (human) = MKNK2 (human) (UniProt Q9HBH9); conditions: compound 100.0 µM; ATP 50 µM
MYLK (human) = MYLK (human) (UniProt Q15746); conditions: compound 100.0 µM; ATP 50 µM
NEK6 (human) = NEK6 (human) (UniProt Q9HC98); conditions: compound 100.0 µM; ATP 50 µM
NUAK1 (human) = NUAK1 (human) (UniProt O60285); conditions: compound 100.0 µM; ATP 20 µM
[1] = system: PAK2 (human), Q13177 [T402E]; conditions: compound 100.0 µM; ATP 20 µM
PAK4 (human) = PAK4 (human) (UniProt O96013); conditions: compound 100.0 µM; ATP 5 µM
PDPK1 (human) = PDPK1 (human) (UniProt O15530); conditions: compound 100.0 µM
PHKG1 (human) = PHKG1 (human) (UniProt Q16816); conditions: compound 100.0 µM; ATP 50 µM
PRKACA (human) = PRKACA (human) (UniProt P17612); conditions: compound 100.0 µM; ATP 20 µM
PTK6 (human) = PTK6 (human) (UniProt Q13882); conditions: compound 100.0 µM; ATP 20 µM
RPS6KA5 KD1 KD2 (human) = RPS6KA5 KD1 KD2 (human) (UniProt O75582); conditions: compound 100.0 µM; ATP 20 µM
STK16 (human) = STK16 (human) (UniProt O75716); conditions: compound 100.0 µM; ATP 50 µM
SYK (human) = SYK (human) (UniProt P43405); conditions: compound 100.0 µM; ATP 20 µM
YES1 (human) = YES1 (human) (UniProt P07947); conditions: compound 100.0 µM; ATP 20 µM

Chain of MAPK12 (human) (P53778 whole entry, looked up): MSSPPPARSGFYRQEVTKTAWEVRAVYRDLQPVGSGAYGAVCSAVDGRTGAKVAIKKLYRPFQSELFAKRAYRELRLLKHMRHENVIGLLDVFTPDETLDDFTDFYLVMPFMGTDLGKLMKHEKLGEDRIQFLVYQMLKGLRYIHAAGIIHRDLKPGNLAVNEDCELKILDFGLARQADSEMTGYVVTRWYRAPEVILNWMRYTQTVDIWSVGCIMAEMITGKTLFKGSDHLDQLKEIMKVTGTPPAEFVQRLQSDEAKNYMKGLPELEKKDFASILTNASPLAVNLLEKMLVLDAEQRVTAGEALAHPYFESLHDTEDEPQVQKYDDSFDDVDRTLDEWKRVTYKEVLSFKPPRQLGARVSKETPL
Chain of MAPK3 (human) (P27361 whole entry, looked up): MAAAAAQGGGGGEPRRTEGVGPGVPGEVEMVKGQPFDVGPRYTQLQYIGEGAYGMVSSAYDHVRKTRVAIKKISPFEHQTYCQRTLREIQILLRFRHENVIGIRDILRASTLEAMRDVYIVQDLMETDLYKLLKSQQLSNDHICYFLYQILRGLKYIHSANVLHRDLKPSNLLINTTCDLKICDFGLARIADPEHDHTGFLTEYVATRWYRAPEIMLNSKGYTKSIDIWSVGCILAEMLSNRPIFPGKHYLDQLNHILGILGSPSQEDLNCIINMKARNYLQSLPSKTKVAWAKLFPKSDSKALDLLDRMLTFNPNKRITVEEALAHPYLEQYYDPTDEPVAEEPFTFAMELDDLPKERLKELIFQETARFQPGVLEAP
Chain of MELK (human) (Q14680 whole entry, looked up): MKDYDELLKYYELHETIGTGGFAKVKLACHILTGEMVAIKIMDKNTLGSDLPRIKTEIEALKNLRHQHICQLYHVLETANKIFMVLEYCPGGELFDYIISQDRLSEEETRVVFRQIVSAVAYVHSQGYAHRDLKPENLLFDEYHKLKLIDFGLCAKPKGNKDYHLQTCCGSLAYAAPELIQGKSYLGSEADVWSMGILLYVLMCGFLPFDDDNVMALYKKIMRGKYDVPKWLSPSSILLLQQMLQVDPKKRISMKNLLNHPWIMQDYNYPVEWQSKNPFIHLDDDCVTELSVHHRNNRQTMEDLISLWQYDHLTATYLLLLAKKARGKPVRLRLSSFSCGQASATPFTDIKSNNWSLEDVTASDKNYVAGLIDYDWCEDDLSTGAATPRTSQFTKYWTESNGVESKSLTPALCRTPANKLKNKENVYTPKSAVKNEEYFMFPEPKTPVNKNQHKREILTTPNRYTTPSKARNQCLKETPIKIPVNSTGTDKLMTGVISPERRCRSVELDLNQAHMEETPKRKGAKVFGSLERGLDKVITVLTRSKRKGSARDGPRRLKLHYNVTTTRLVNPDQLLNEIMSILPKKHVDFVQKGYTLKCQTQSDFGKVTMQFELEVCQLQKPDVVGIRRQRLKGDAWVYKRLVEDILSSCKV
Chain of IKBKE (human) (Q14164 whole entry, looked up): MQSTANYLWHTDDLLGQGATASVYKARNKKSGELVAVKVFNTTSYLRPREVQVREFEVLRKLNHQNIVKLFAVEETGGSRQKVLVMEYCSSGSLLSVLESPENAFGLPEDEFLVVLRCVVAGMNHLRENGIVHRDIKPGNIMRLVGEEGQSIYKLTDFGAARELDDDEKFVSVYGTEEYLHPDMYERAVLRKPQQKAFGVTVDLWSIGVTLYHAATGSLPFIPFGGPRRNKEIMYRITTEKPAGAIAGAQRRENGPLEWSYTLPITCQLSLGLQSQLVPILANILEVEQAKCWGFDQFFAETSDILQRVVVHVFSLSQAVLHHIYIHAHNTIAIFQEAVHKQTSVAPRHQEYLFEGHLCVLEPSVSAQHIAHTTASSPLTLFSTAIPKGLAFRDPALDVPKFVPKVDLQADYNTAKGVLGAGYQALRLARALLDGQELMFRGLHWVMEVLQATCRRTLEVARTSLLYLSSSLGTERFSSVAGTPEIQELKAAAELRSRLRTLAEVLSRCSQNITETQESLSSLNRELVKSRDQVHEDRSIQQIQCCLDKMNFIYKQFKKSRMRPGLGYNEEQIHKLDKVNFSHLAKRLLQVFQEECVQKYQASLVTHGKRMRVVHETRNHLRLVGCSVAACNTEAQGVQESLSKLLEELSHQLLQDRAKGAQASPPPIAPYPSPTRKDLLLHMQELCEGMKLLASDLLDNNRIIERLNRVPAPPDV
Chain of CaMK1 (human) (Q14012 whole entry, looked up): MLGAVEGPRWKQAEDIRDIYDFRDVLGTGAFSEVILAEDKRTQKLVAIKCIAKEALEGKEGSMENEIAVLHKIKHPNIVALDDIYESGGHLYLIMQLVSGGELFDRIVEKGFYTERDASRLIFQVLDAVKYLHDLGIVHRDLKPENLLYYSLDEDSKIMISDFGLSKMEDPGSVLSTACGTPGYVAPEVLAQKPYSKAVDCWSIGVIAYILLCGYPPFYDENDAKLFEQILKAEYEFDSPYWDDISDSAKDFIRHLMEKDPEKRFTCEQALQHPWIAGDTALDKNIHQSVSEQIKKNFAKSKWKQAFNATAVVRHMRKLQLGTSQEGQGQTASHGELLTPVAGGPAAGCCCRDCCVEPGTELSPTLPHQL
Chain of MAPK8 (human) (P45983 whole entry, looked up): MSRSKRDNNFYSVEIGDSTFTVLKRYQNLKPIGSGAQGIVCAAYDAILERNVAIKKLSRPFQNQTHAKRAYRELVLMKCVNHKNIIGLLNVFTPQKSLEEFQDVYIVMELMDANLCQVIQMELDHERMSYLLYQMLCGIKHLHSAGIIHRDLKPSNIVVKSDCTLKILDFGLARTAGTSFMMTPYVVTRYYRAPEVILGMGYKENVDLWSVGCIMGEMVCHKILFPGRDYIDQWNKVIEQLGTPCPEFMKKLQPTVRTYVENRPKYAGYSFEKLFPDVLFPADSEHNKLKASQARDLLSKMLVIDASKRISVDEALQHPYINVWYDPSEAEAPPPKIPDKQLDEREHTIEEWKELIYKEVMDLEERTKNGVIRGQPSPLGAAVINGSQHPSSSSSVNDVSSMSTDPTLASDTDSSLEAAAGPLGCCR
Chain of IKBKB (human) (O14920 whole entry, looked up): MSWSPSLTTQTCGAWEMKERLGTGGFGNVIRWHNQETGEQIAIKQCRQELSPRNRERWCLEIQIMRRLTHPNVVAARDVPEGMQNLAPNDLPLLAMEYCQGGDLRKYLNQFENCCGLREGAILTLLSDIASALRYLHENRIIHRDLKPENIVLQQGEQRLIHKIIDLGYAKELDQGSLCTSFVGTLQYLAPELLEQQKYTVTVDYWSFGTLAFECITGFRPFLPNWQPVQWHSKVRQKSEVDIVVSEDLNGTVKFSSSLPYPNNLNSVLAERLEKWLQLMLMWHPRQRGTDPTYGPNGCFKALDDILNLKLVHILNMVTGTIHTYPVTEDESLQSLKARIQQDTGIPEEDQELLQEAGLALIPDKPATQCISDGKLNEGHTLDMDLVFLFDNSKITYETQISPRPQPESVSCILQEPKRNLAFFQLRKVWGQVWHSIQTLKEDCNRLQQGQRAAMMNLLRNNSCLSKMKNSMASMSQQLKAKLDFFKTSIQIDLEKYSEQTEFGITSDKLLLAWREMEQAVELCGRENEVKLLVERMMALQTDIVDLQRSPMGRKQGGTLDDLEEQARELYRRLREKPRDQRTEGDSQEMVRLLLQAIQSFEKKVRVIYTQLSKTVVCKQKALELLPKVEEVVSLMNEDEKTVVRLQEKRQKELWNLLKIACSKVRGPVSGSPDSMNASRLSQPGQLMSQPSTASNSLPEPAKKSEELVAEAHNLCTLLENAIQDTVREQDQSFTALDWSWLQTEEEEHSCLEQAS
Chain of ABL1 (human) (P00519 whole entry, looked up): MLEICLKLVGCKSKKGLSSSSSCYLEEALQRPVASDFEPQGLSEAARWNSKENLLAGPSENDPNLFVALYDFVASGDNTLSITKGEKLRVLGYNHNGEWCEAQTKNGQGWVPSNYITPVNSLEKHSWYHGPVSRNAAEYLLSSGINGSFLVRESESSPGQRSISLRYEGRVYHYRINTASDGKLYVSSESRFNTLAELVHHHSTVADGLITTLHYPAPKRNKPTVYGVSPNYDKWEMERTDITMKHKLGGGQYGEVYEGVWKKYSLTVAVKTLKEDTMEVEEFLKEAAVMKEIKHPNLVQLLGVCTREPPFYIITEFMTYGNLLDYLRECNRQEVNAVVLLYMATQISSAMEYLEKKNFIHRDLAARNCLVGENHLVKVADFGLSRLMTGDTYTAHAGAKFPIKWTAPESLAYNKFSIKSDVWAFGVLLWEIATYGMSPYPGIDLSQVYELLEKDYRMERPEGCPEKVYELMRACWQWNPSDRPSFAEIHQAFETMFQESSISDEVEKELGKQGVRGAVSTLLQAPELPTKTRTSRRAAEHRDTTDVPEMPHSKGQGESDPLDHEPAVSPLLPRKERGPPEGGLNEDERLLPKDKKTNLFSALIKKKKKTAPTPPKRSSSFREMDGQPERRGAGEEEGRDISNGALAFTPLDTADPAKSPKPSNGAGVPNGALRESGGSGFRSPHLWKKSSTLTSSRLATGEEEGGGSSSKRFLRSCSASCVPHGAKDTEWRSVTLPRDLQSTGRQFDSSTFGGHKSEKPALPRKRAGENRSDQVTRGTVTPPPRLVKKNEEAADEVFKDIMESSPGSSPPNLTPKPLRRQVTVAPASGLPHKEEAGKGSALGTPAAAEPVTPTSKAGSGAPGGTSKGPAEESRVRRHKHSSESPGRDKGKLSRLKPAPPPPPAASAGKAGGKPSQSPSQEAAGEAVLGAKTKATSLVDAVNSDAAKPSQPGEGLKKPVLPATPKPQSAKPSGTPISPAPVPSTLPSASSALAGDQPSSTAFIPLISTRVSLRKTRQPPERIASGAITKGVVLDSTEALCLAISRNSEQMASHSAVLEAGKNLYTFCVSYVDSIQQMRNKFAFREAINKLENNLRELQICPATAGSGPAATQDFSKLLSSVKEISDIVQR

inhibition (ABL1 (human))	inhibition (AURKA (human))	inhibition (CaMK1 (human))	inhibition (EEF2K (human))	inhibition (ERBB4 (human))	inhibition (GCK (human))	inhibition (GSK3B (human))	inhibition (IKBKB (human))	inhibition (IKBKE (human))	inhibition (LCK (mouse))	inhibition (MAP3K11 (human))	inhibition (MAP3K5 (human))	inhibition (MAP3K9 (human))	inhibition (MAPK12 (human))	inhibition (MAPK3 (human))	inhibition (MAPK8 (human))	inhibition (MAPKAPK2 (human))	inhibition (MAPKAPK5 (human))	inhibition (MARK1 (human))	inhibition (MARK2 (human))	further results	SMILES
3%	0%	6%	6%	21%	0%	0%	0%	0%	18%	0%	9%	0%	0%	13%	0%	17%	0%	0%	0%	inhibition (MELK (human)): 0%; inhibition (MKNK2 (human)): 10%; inhibition (MYLK (human)): 0%; inhibition (NEK6 (human)): 0%; inhibition (NUAK1 (human)): 0%; inhibition [1]: 0%; inhibition (PAK4 (human)): 3%; inhibition (PDPK1 (human); ATP 20 µM): 1%; inhibition (PDPK1 (human); ATP 50 µM): 0%; inhibition (PHKG1 (human)): 28%; inhibition (PRKACA (human)): 0%; inhibition (PTK6 (human)): 19%; inhibition (RPS6KA5 KD1 KD2 (human)): 52%; inhibition (STK16 (human)): 10%; inhibition (SYK (human)): 0%; inhibition (YES1 (human)): 0%	O=C(Nc1cnc2[nH]cnn2c1=O)c1ccccc1
11%	5%	83%	0%	53%	0%	38%	9%	0%	5%	0%	2%	14%	0%	1%	2%	2%	44%	0%	13%	inhibition (MELK (human)): 16%; inhibition (MKNK2 (human)): 0%; inhibition (MYLK (human)): 24%; inhibition (NEK6 (human)): 0%; inhibition (NUAK1 (human)): 20%; inhibition [1]: 14%; inhibition (PAK4 (human)): 0%; inhibition (PDPK1 (human); ATP 20 µM): 13%; inhibition (PDPK1 (human); ATP 50 µM): 8%; inhibition (PHKG1 (human)): 10%; inhibition (PRKACA (human)): 0% and 21%; inhibition (PTK6 (human)): 21%; inhibition (RPS6KA5 KD1 KD2 (human)): 0%; inhibition (STK16 (human)): 0%; inhibition (SYK (human)): 12%; inhibition (YES1 (human)): 4%	CC(C)(C)Nc1c(COCc2ccccc2)nc2[nH]cnn12
72%	52%	41%	36%	83%	93%	72%	27%	39%	75%	89%	32%	81%	1%	31%	30%	56%	34%	0%	2%	inhibition (MELK (human)): 13%; inhibition (MKNK2 (human)): 66%; inhibition (MYLK (human)): 19%; inhibition (NEK6 (human)): 1%; inhibition (NUAK1 (human)): 73%; inhibition [1]: 31%; inhibition (PAK4 (human)): 89%; inhibition (PDPK1 (human); ATP 20 µM): 35%; inhibition (PDPK1 (human); ATP 50 µM): 6%; inhibition (PHKG1 (human)): 83%; inhibition (PRKACA (human)): 9%; inhibition (PTK6 (human)): 53%; inhibition (RPS6KA5 KD1 KD2 (human)): 19%; inhibition (STK16 (human)): 7%; inhibition (SYK (human)): 84%; inhibition (YES1 (human)): 89%	Nc1nc2cnc(-c3ccccc3)cn2n1
4%	6%	11%	11%	25%	6%	9%	0%	3%	23%	40%	0%	2%	0%	10%	0%	29%	17%	16%	0%	inhibition (MELK (human)): 2%; inhibition (MKNK2 (human)): 25%; inhibition (MYLK (human)): 36%; inhibition (NEK6 (human)): 15%; inhibition (NUAK1 (human)): 0%; inhibition [1]: 12%; inhibition (PAK4 (human)): 20%; inhibition (PDPK1 (human); ATP 20 µM): 14%; inhibition (PDPK1 (human); ATP 50 µM): 4%; inhibition (PHKG1 (human)): 44%; inhibition (PRKACA (human)): 0% and 2%; inhibition (PTK6 (human)): 30%; inhibition (RPS6KA5 KD1 KD2 (human)): 4%; inhibition (STK16 (human)): 21%; inhibition (SYK (human)): 22%; inhibition (YES1 (human)): 11%	O=C(Nc1cnc2[nH]ccn2c1=O)c1ccccc1
5%	23%	0%	10%	31%	0%	2%	0%	0%	0%	0%	16%	0%	0%	0%	2%	26%	3%	32%	0%	inhibition (MELK (human)): 0%; inhibition (MKNK2 (human)): 0%; inhibition (MYLK (human)): 0%; inhibition (NEK6 (human)): 3%; inhibition (NUAK1 (human)): 0%; inhibition [1]: 17%; inhibition (PAK4 (human)): 15%; inhibition (PDPK1 (human); ATP 20 µM): 29%; inhibition (PDPK1 (human); ATP 50 µM): 10%; inhibition (PHKG1 (human)): 30%; inhibition (PRKACA (human)): 0% and 14%; inhibition (PTK6 (human)): 9%; inhibition (RPS6KA5 KD1 KD2 (human)): 28%; inhibition (STK16 (human)): 3%; inhibition (SYK (human)): 9%; inhibition (YES1 (human)): 30%	COc1ccc(NC(=S)Nc2cnc3[nH]cnn3c2=O)cn1
0%	16%	22%	18%	19%	8%	24%	11%	0%	0%	0%	4%	0%	0%	0%	0%	0%	13%	0%	0%	inhibition (MELK (human)): 0%; inhibition (MKNK2 (human)): 9%; inhibition (MYLK (human)): 14%; inhibition (NEK6 (human)): 0%; inhibition (NUAK1 (human)): 24%; inhibition [1]: 10%; inhibition (PAK4 (human)): 0%; inhibition (PDPK1 (human); ATP 20 µM): 3%; inhibition (PDPK1 (human); ATP 50 µM): 11%; inhibition (PHKG1 (human)): 6%; inhibition (PRKACA (human)): 0% and 5%; inhibition (PTK6 (human)): 25%; inhibition (RPS6KA5 KD1 KD2 (human)): 0%; inhibition (STK16 (human)): 0%; inhibition (SYK (human)): 7%; inhibition (YES1 (human)): 0%	CC(C)(C)Nc1c(C2CC2)nc2[nH]cnn12
